Data from patent publication US8592486B2, “Compounds for inflammation and immune-related uses” (Synta Pharmaceuticals Corp., priority 2005, dated 2013).

What was measured:
IL-2 production = experiment: Inhibition of IL-2 production in PHA-activated Jurkat cells (ELISA); assay type: cell-based, human; settings: Homo sapiens, Jurkat, 20 h, Jurkat cells, PHA 2.5 μg/mL, 20 hours, IL-2 ELISA; read-out: IC50 (inhibition of IL-2 production)
[1] = test system: ICRAC in human Jurkat T cells; experiment: Whole-cell patch clamp, inhibition of ICRAC current in Jurkat T cells; assay type: cell-based
Procedure: Patch clamp experiments were performed in the tight-seal whole-cell configuration at 21-25° C. High resolution current recordings were acquired by a computer-based patch clamp amplifier system (EPC-9, HEKA, Lambrecht, Germany). Patch pipettes had resistances between 2-4 MΩ after filling with the standard intracellular solution. Immediately following establishment of the whole-cell configuration, voltage ramps of 50-200 ms duration spanning the voltage range of −100 to +100 mV were delivered at a rate of 0.5 Hz over a period of 300-400 seconds. […] Capacitive currents and series resistance were determined and corrected before each voltage ramp using the automatic capacitance compensation of the EPC-9. The low resolution temporal development of membrane currents was assessed by extracting the current amplitude at −80 mV or +80 mV from individual ramp current records.
In general, a whole cell patch clamp method was used to examine the effects of a compound of the invention on a channel that mediates Icrac. […] Then a compound to be tested was perfused (or puffed) to cells in the external solution and the effect of the compound on Icrac was measured. […]
Patch-clamp experiments were performed in the tight-seal whole-cell configuration at 21-25° C. […] Capacitive currents and series resistance were determined and corrected before each voltage ramp using the automatic capacitance compensation of the EPC-9. […]

[2] = test system: degranulation in RBL cells; experiment: Inhibition of degranulation in RBL cells; assay type: cell-based; settings: Rattus norvegicus, anti-DNP IgE, read-out: IC50 (concentration which inhibits 50% of degranulation in RBL cells)
Procedure: The day before the assay was performed, RBL cells, that had been grown to confluence in a 96 well plate, were incubated at 37° C. for at least 2 hours. The medium was replaced in each well with 100 μL of fresh medium containing […] of anti-DNP IgE.
On the following day, the cells were washed once with PRS (2.6 mM glucose and 0.1% BSA) and 160 μL of PRS was added to each well. A test compound was added to a well in a 20 μL solution at 10× of the desired concentration and incubated for 20 to 40 minutes at 37° C. 20 μL of 10× mouse anti-IgE ([…]) was added. Maximum degranulation occurred between 15 to 40 minutes after addition of anti-IgE.

[3] = test system: chemotactic response of porcine T cells to MIP-1α; experiment: T cell chemotaxis (cell migration) assay, porcine T cells; assay type: cell-based, pig; settings: Sus scrofa, 10 ng/ml MIP-1α, 2 hr migration, averages of triplicates, read-out: IC50, inhibition of chemotactic response of porcine T cells
Procedure: (§1) Twenty ml aliquots of heparinized whole blood (2 pig, 1 human) were subjected to density gradient centrifugation on Ficoll Hypaque. The buffy coat layers representing peripheral blood mononuclear cells (PBMCs) containing lymphocytes and monocytes were washed once, resuspended in 12 ml of incomplete RPMI 1640 and then placed in gelatin-coated T75 culture flasks for 1 hr at 37° C. The non-adherent cells, representing peripheral blood lymphocytes (PBLs) depleted of monocytes, were resuspended in complete RPMI media and placed in loosely packed activated nylon wool columns that had been equilibrated with warm media. After 1 hr at 37° C., the non-adherent T cell populations were eluted by washing of the columns with additional media. The T cell preparations were centrifuged, resuspended in 5 ml of incomplete RPMI, and counted using a hemocytometer.
(§2) Aliquots of each T cell preparation were labeled with Calcien AM (TefLabs) and suspended at a concentration of 2.4×10^6/ml in HEPES-buffered Hank's Balanced Salt Solution containing 1.83 mM CaCl2 and 0.8 mM MgCl2, pH 7.4 (HHBSS). […] The chemotaxis units were then placed in a CytoFlour 4000 (PerSeptive BioSystems) and the fluorescence of each well measured (excitation and emission wavelengths of 450 and 530 nm, respectively). […]

[4] = test system: chemotactic response of human T cells to MIP-1α; experiment: T cell chemotaxis (cell migration) assay, human T cells; assay type: cell-based; settings: 100 ng/ml MIP-1α, FIG. 1
Procedure: as §1, §2

IC50 (IL-2 production): 2 to 4 nM
IC50 [2]: 2520 nM
IC50 [3]: ~5 nM
Compound: COC(=O)c1ccc(C)c(-c2ccc(NC(=O)c3c(F)cccc3F)cc2)c1 [Compound 1, 4′-(2,6-Difluoro-benzoylamino)-6-methyl-biphenyl-3-carboxylic acid methyl ester]
Inhibition of ICRAC in human Jurkat T cells [1]: strong inhibitor
Inhibition of chemotactic response of human T cells [4]: inhibitory
